According to US11054425B2, “System and method for identification and characterization of transglutaminase species” (Roche Sequencing Solutions, Inc., priority 2014, dated 2021):
No end group written: not given here. *: point of attachment. Cbz = O=C(OCc1ccccc1)*

Experiments:
KalbTG [1] = assay: 5-mer peptide array, glutamine-substrate screening with biotinylated amine donor; type: biochemical, Kutzneria albida; settings: incorporation of biotinylated amine-donor on 5-mer peptide array
Experimental: To identify potential acyl-donor and amine-donor substrates of the K. albida transglutaminase, high-throughput screening on 5-mer peptide arrays was performed (FIGS. 4A and 4B). An activity of at least 1.65 U/mg for both the SlyD-fused and the mature KalbTG enzymes was confirmed by commercial assay (Zedira MTG-ANiTA-KIT; compared to 4.3 U mg^−1 by the MTG supplied with the kit and a 0.07 U/mg blank value with BSA). The assay used β-casein as a cross-linking substrate and detected deamidation by a glutamate dehydrogenase dependent oxidation of NADPH. Specific recognition motifs were identified by assaying KalbTG with peptide arrays prepared by maskless array synthesis (U.S. Pat. Pub. No 2015/0185216 to Albert et al. filed on 19 Dec. 2014). The efficiency of the transamidation reaction between 1.4 million unique 5-mer peptides and a biotinylated amine donor was quantified on two arrays in parallel and the sequences of the peptides with the highest turnovers were determined (FIG. 4A). The nine best peptides were resynthesized and tested for KalbTG activity in a standalone GLDH-coupled assay. Note that the array signal for the sequence MLAQG (SEQ ID NO:13) is marked not applicable (n. a.) as this sequence was not included on the array. Similarly, measurement of a background signal was only applicable to experiments performed on the array.
For construction of the peptide array, a library of 1,360,732 unique 5-mer peptides was designed by using all combinations of 18 natural amino acids excluding cysteine and methionine, as well as any dimer or a longer repeat of the same amino acid, and any peptide containing a dipeptide selected from HR, RH, HK, KH, RK, KR, HP, and PQ sequences. The library was synthesized in duplicate on the same array by using maskless light-directed peptide array synthesis. Each 5-mer peptide was flanked on both the N-terminus and C-terminus by 3 amino acid-long linkers synthesized by using mixture of glycine and serine having a 3:1 ratio.
To test KalbTG specificity for glutamine-containing substrate, N-(biotinyl)cadaverine was used as a substitute for a lysine substrate to biotinylate glutamine-peptides on a peptide array. KalbTG labeling reaction was performed in 1200 μL 100 mM Tris-HCl pH 8, 1 mM DTT, 50 μM N-(biotinyl)cadaverine, 0.2 ng μl^−1 KalbTG in SecureSeal™ chamber (Grace Bio-Labs) at 37° C. for 45 minutes. After incubation the chamber was removed and the array was washed in 20 mM Tris-HCl, pH7.8, 0.2 M NaCl, 1% SDS for 1 minute followed by a 1 minute wash in 20 mM Tris-HCl. Biotin linked to the array was stained with 0.3 μg ml^−1 Cy5-streptavidin in 10 mM Tris-HCl, pH7.4, 1% alkali-soluble casein, 0.05% TWEEN-20 non-ionic detergent at room temperature for 1 hour. Cy5 fluorescence intensity was measured with a fluorescence scanner at a resolution of 2 μm and a wavelength of 635 nm.

S. mobaraensis MTG = assay: GLDH-coupled assay in solution (NADH oxidation); type: biochemical, Streptomyces mobaraensis; settings: enzyme MTG; glutamine-donor 0 to 1 mM, cadaverine 1 mM, 37° C.
Experimental: (§1) For the GLDH coupled assay, to determine whether the KalbTG peptides selected in the array assay were also preferred substrates in a solution reaction and to quantify cross-reactivity of KalbTG and S. mobaraensis MTG with various substrates, a continuous glutamate dehydrogenase (GLDH)-coupled assay for S. mobaraensis MTG activity (see Oteng-Pabi, et al., 2013. Analytical biochemistry 441(2): 169-173) was applied.
(§2) For glutamine substrate evaluation, the assay was performed in a transparent 96-well microtiter plate in the presence of 500 μM α-ketoglutarate, 500 μM or 1 mM cadaverine as Amine donor substituting for a lysine-containing peptide, 2 U ml^−1 of glutamate dehydrogenase (GLDH), 500 μM NADH and glutamine-containing substrate peptide (Z-[[…] (SEQ ID NO:77)], Z-[[…] (SEQ ID NO:78)], Z-[[…] (SEQ ID NO:75)], Z-[[…] (SEQ ID NO:79)], Z-[[…] (SEQ ID NO:80)], Z-[[…] (SEQ ID NO:81)], Z-[[…] (SEQ ID NO:82)], Z-[[…] (SEQ ID NO:83)], Z-[[…] (SEQ ID NO:84)], Z-[[…] (SEQ ID NO:85)], Z-[[…] (SEQ ID NO:86)], Z-[[…] (SEQ ID NO:76)] or Z-[[…] (SEQ ID NO:87)]) concentrations ranging between 0 and 1 mM in 200 mM MOPS, 1 mM EDTA pH 7.2 (total volume per well 200 μl).
(§3) Reactions were started by the addition of 5 μg ml^−1 of S. mobaraensis MTG or KalbTG and the oxidation of NADH was continuously recorded at 340 nm for 60 minutes using a Biotek Synergy H4 microplate reader, temperature controlled at 37° C., with short shaking intervals before each measurement. After a short lag phase where the GLDH was saturated by transglutaminase-mediated release of ammonia, linear rates of absorbance versus time corresponding to transglutaminase turnover were observed and subjected to Michaelis-Menten kinetic analysis. Rates of absorbance in millioptical density units per minute (mOD min^−1) were converted into molar rates of NADH turnover (pmol s^−1) using the formula of Equation 1 (previously determined by an NADH standard curve): Turnover rate=|Absorbance rate|*1.111 (Eq. 1)

KalbTG [2] = assay: GLDH-coupled assay in solution (NADH oxidation); type: biochemical, Kutzneria albida
Experimental: KalbTG activity was obtained by measuring incorporation of a biotinylated amine-donor on the peptide array and rates of NADH oxidation at 340 nm and 37° C. in the presence of amine-donor substrate (500 μM) in the GLDH-coupled assay using 100 μM each of nine of the best-performing array-selected glutamine-containing substrates and of two S. mobaraensis MTG glutamine-containing substrates. […] Testing of the top sequences in Table 1 confirmed YRYRQ (SEQ ID NO: 1) and RYRQR (SEQ ID NO 14) as the top performing 5-mer substrates, with turnover rates of 3.52±0.08 pmol NADH s^−1 and 3.60±0.12 pmol NADH s^−1, respectively.
With reference to Table 2, KalbTG activity was obtained by measuring incorporation of a biotinylated glutamine-donor and rates of NADH oxidation at 340 nm and 37° C. in the presence of glutamine-donor substrate (200 μM) in the GLDH-coupled assay using 100 μM each of i) six of the top-performing array-selected lysine substrates, ii) cadaverine, and iii) preferred MTG lysine substrate ARSKL (SEQ ID NO:30). […] This is a small but significant increase over cadaverine (3.51±0.12 pmol s^−1) or ARSKL (SEQ ID NO:30) (3.87±0.31 pmol s^−1), a peptide previously established as a preferred MTG lysine donor motif on the peptide array. Additional details on the S. mobaraensis MTG substrate peptide ARSKL (SEQ ID NO:30) can be found in U.S. Provisional Patent Application Ser. No. 62/094,495 to Albert et al. filed on Dec. 19, 2014.
as §1, §2
For amine substrate evaluation, assay conditions were the same as for glutamine substrate evaluation with the exception that 100 μM each of amine substrate (Z-[[…] (SEQ ID NO:88)], Z-[[…] (SEQ ID NO:89)], Z-[[…] (SEQ ID NO:90)], Z-[[…] (SEQ ID NO:91)], Z-[[…] (SEQ ID NO:92)], Z-[[…] (SEQ ID NO:93)], Z-[[…] (SEQ ID NO:94)], Z-[[…] (SEQ ID NO:95)] or cadaverine) and 200 μM glutamine donor (Z-[[…] (SEQ ID NO:75)] or Z-[[…] (SEQ ID NO:76)]) were used.
as §3, with “Rates of absorbance in millioptical density units per minute (mOD min^−1) were converted into molar rates of NADH turnover (pmol s^−1) using the formula of Equation 1 (previously determined by an NADH standard curve): Turnover rate=|Absorbance rate|*1.111 (Eq. 1)” left out

[3] = system: Z-[GGGYRYRQGGGG (SEQ ID NO:75)]-OH; assay: GLDH assay of transglutaminase enzyme activity after storage; type: biochemical; settings: 200 μM glutamine substrate, 10 mM cadaverine, 37° C., pH 7.4
Experimental: A further experiment was performed to determine the activity of KalbTG enzymes prepared from two different constructs, and stored at two different temperatures. The KalbTGt3 (SEQ ID NO:10) and KalbTGt1 (SEQ ID NO: 12) enzymes tested were obtained respectively from the EcSlyD2-Xa-KalbTGt3-8×His-tag construct (SEQ ID NO:8) and the EcSlyD2-Xa-KalbTGt1-8×His-tag construct (SEQ ID NO:11) described in Example 3. The activity of the two KalbTG enzymes was tested after storage at either 4° C. or −20° C. and compared against the activity of commercially available S. mobaraensis MTG according to a published protocol (Oteng-Pabi, et al., 2013. Analytical biochemistry 441(2): 169-173). In particular, assays were performed at 37° C. in 200 μl total volume. The assay mixture included 200 mM MOPS, 1 mM EDTA, and 1 mM DTT at pH 7.4. Further, α-ketoglutarate and NADH were added at a concentration of 500 μM, along with 2 U/ml GLDH, and between 0.1 μg and 1.0 μg of one of the transglutaminase enzymes. The glutamine substrate was 200 μM Z-[[…] (SEQ ID NO:75)]-OH, and the amine donor was 10 mM cadaverine, where Z represents a carboxybenzyl group. All data were collected in triplicate (average of 3 wells in a microtiter plate) and baseline activity (buffer without enzyme) subtracted.

[4] = enzyme KalbTG, glutamine-donor 0 to 1 mM, cadaverine 1 mM, 37° C.

Molecule | Array signal (log2) (KalbTG [1]) | Km (S. mobaraensis MTG) | Vmax (S. mobaraensis MTG) | kcat (S. mobaraensis MTG) | Activity ([3]; storage 4 ° C.) | Activity ([3]; storage −20 ° C.) | other results
DYALQ (Cbz-DYALQ) [preferred S. mobaraensis MTG glutamine-containing substrate, reference compound] | 7.22 log2 | 847 ± 138 µM | 36.66 ± 3.33 pmol/s | 1.39 S^−1 |  |  | reactivity of KalbTG towards substrate (KalbTG [2]; kinetics, varying substrate concentrations): completely unreactive
YRYRQ (Cbz-YRYRQ) [KalbTG glutamine-donor (Q-tag) 5-mer] | 8.99 log2 | 644 ± 58.4 µM | 21.50 ± 1.00 pmol/s | 0.93 S^−1 |  |  | Reaction rate in solution (KalbTG [2]; 100 μM glutamine-containing substrate, 500 μM amine-donor substrate, NADH oxidation at 340 nm, 37° C.): 3.52 ± 0.08 pmol/s; Km (KalbTG [2]; enzyme KalbTG): 2000 µM; Km (KalbTG [2]; [4]): 2150 ± 291 µM; Vmax (KalbTG [2]; [4]): 73.18 ± 7.27 pmol/s; kcat (KalbTG [2]; [4]): 1.92 S^−1
KalbTGt1: KalbTG enzyme without propeptide, expressed and purified with ammonium (protein, synthetic peptide sequence - KalbTGt1-8xHis; K-albida_MTG; 8xHis-tag, KalbTG enzyme without propeptide, expressed and purified with ammonium) MLAPPLAEDRSYRTWRVEDYVEAWERYHGREMTEDERENLARGCIGVTVVNLNREDLSNPPLNLSFGSLRTAEAVQAALNKIVDTHPSPAQYEAAVAKDPILKRLKNVVKALPSWIDSAKLKASIFSKRFYSWQNPDWSEERAHTTYRPDRETDQVDMSTYRYRARPGYVNFDYGWFDQDTNTWWHANHEEPRMVVYQSTLRHYSRPLQDFDEQVFTVAFAKKDGHHHHHHHH |  |  |  |  | 1.4099 ± 0.1806 μmol NH3/min/mg Enzyme | 0.8630 ± 0.0259 μmol NH3/min/mg Enzyme | 
S. mobaraensis MTG: commercially available Streptomyces mobaraensis microbial transglutaminase (protein, protein-glutamine gamma-glutamyltransferase, commercially available Streptomyces mobaraensis microbial transglutaminase) MRIRRRALVFATMSAVLCTAGFMPSAGEAAADNGAGEETKSYAETYRLTADDVANINALNESAPAASSAGPSFRAPDSDDRVTPPAEPLDRMPDPYRPSYGRAETVVNNYIRKWQQVYSHRDGRKQQMTEEQREWLSYGCVGVTWVNSGQYPTNRLAFASFDEDRFKNELKNGRPRSGETRAEFEGRVAKESFDEEKGFQRAREVASVMNRALENAHDESAYLDNLKKELANGNDALRNEDARSPFYSALRNTPSFKERNGGNHDPSRMKAVIYSKHFWSGQDRSSSADKRKYGDPDAFRPAPGTGLVDMSRDRNIPRSPTSPGEGFVNFDYGWFGAQTEADADKTVWTHGNHYHAPNGSLGAMHVYESKFRNWSEGYSDFDRGAYVITFIPKSWNTAPDKVKQGWP |  |  |  |  |  | 1.1348 ± 0.0059 μmol NH3/min/mg Enzyme | 
KalbTGt3: KalbTG enzyme from EcSlyD2-Xa-KalbTGt3-8×His after factor Xa and trypsin digest (protein, synthetic peptide sequence - KalbTGt3-8xHis-tag (post-trypsin digest); K-albida_MTG; 8xHis-tag, KalbTG enzyme from EcSlyD2-Xa-KalbTGt3-8×His after factor Xa and trypsin digest) APLAPPLAEDRSYRTWRVEDYVEAWERYHGREMTEDERENLARGCIGVTVVNLNREDLSNPPLNLSFGSLRTAEAVQAALNKIVDTHPSPAQYEAAVAKDPILKRLKNVVKALPSWIDSAKLKASIFSKRFYSWQNPDWSEERAHTTYRPDRETDQVDMSTYRYRARPGYVNFDYGWFDQDTNTWWHANHEEPRMVVYQSTLRHYSRPLQDFDEQVFTVAFAKKDGGGSGHHHHHHHH |  |  |  |  | 0.1501 ± 0.0011 μmol NH3/min/mg Enzyme | 0.1528 ± 0.0400 μmol NH3/min/mg Enzyme | 
